Test results from patent US12398097B2, “WDR5-MYC inhibitors” (Vanderbilt University, priority 2019, dated 2025).

Biological target: WDR5 (Homo sapiens, UniProt P61964)
Assay: Competition-based fluorescence polarization anisotropy assay
Conditions: binding to WDR5; displacement of FITC-labeled small molecule probe (analogous to Example J2 or HCH-25) or peptide probe FITC-AHx-SEEEIDVVSV; pH 6.0; Ki converted from IC50
In short: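 Ki values derive from displacement of either a fluorescent small-molecule probe or a FITC-peptide probe from WDR5, monitored by fluorescence polarization. Assay run at pH 6.0 in 200 mM phosphate with 300 mM NaCl, 0.5 mM TCEP and 0.1% Chaps.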

| SMILES | Ki |
| --- | --- |
| COC[C@H]1CCCN1C(=O)c1cc(OC(F)(F)F)cc(NS(=O)(=O)c2cc(Cl)ccc2O)c1O [Example J177, (R)-5-Chloro-2-hydroxy-N-(2-hydroxy-3-(2-(methoxymethyl)pyrrolidine-1-carbonyl)-5-(trifluoromethoxy)phenyl)benzenesulfonamide] | 4.86 µM |
| O=C(NCC1CCCO1)c1cc(OC(F)(F)F)cc(NS(=O)(=O)c2cc(Cl)ccc2O)c1O (stereo not drawn) [Example J178, 3-((5-Chloro-2-hydroxyphenyl)sulfonamido)-2-hydroxy-N-((tetrahydrofuran-2-yl)methyl)-5-(trifluoromethoxy)benzamide] | 0.7 µM |
| COc1ccc(Br)cc1S(=O)(=O)Nc1cc(OC(F)(F)F)cc(C(=O)NCC2CCCO2)c1O (stereo not drawn) [Example J179, 3-((5-Bromo-2-methoxyphenyl)sulfonamido)-2-hydroxy-N-((tetrahydrofuran-2-yl)methyl)-5-(trifluoromethoxy)benzamide] | 0.74 µM |
| COC[C@@H]1CCCN1C(=O)c1cc(OC(F)(F)F)cc(NS(=O)(=O)c2cc(Br)ccc2OC)c1O [Example J180, (S)-5-Bromo-N-(2-hydroxy-3-(2-(methoxymethyl)pyrrolidine-1-carbonyl)-5-(trifluoromethoxy)phenyl)-2-methoxybenzenesulfonamide] | 4.02 µM |
| COC[C@H]1CCCN1C(=O)c1cc(OC(F)(F)F)cc(NS(=O)(=O)c2cc(Br)ccc2OC)c1O [Example J181, (R)-5-bromo-N-(2-hydroxy-3-(2-(methoxymethyl)pyrrolidine-1-carbonyl)-5-(trifluoromethoxy)phenyl)-2-methoxybenzenesulfonamide] | 5.88 µM |
| CNC(=O)c1cc(OC(F)(F)F)cc(NS(=O)(=O)c2cc(Br)cc3cccnc23)c1O [Example J182, 3-((6-Bromoquinoline)-8-sulfonamido)-2-hydroxy-N-methyl-5-(trifluoromethoxy)benzamide] | 1.06 µM |
| COc1ccc(Br)cc1S(=O)(=O)Nc1cc(-c2ccccc2)cc(C(=O)O)c1O [Example J183, 5-((5-Bromo-2-methoxyphenyl)sulfonamido)-4-hydroxy-[1,1′-biphenyl]-3-carboxylic acid] | 2.38 µM |
| Cc1c(-c2ccccc2)cc(NS(=O)(=O)c2cc(Br)ccc2O)c(O)c1C(=O)O [Example J184, 5-((5-Bromo-2-hydroxyphenyl)sulfonamido)-4-hydroxy-2-methyl-[1,1′-biphenyl]-3-carboxylic acid] | 1.62 µM |
| Cc1c(C2CC2)cc(NS(=O)(=O)c2cc(Br)ccc2O)c(O)c1C(=O)O [Example J185, 3-((5-Bromo-2-hydroxyphenyl)sulfonamido)-5-cyclopropyl-2-hydroxy-6-methylbenzoic acid] | 0.58 µM |
| COc1ccc(Br)cc1S(=O)(=O)Nc1cc(C(=O)O)cc(C2=CCOCC2)c1 [Example J193, 3-((5-Bromo-2-methoxyphenyl)sulfonamido)-5-(3,6-dihydro-2H-pyran-4-yl)benzoic acid] | 69.2 µM |
| COc1ccc(Br)cc1S(=O)(=O)Nc1cc(N2CCOCC2)cc(C(=O)O)c1O [Example J194, 3-((5-Bromo-2-methoxyphenyl)sulfonamido)-2-hydroxy-5-morpholinobenzoic acid] | 10.3 µM |
| O=C(O)c1cc(-c2ccsc2)cc(NS(=O)(=O)c2cc(Br)ccc2O)c1O [Example J195, 3-((5-Bromo-2-hydroxyphenyl)sulfonamido)-2-hydroxy-5-(thiophen-3-yl)benzoic acid] | 0.94 µM |
| O=C(O)c1cc(-c2cccs2)cc(NS(=O)(=O)c2cc(Br)ccc2O)c1O [Example J196, 3-((5-bromo-2-hydroxyphenyl)sulfonamido)-2-hydroxy-5-(thiophen-2-yl)benzoic acid] | 1.07 µM |
| Cc1ccsc1-c1cc(NS(=O)(=O)c2cc(Br)ccc2O)c(O)c(C(=O)O)c1 [Example J197, 3-((5-Bromo-2-hydroxyphenyl)sulfonamido)-2-hydroxy-5-(3-methylthiophen-2-yl)benzoic acid] | 1.93 µM |
| Cc1sccc1-c1cc(NS(=O)(=O)c2cc(Br)ccc2O)c(O)c(C(=O)O)c1 [Example J198, 3-((5-Bromo-2-hydroxyphenyl)sulfonamido)-2-hydroxy-5-(2-methylthiophen-3-yl)benzoic acid] | 1.1 µM |
| O=C(O)c1c(O)c(NS(=O)(=O)c2cc(Br)ccc2O)cc(-c2ccsc2)c1F [Example J199, 3-((5-Bromo-2-hydroxyphenyl)sulfonamido)-6-fluoro-2-hydroxy-5-(thiophen-3-yl)benzoic acid] | 0.64 µM |
| COc1ccc(Br)cc1S(=O)(=O)Nc1cc(Cl)cc(NC(C)=O)c1O [Example J200, N-(3-((5-Bromo-2-methoxyphenyl)sulfonamido)-5-chloro-2-hydroxyphenyl)acetamide] | 68.8 µM |
| CC(C)(C)c1cc(NS(=O)(=O)c2cc(Br)ccc2O)c(O)c(C(=O)O)c1 [Example J201, 3-((5-Bromo-2-hydroxyphenyl)sulfonamido)-5-(tert-butyl)-2-hydroxybenzoic acid] | 0.7 µM |
| CNC(=O)c1cc(C(C)(C)C)cc(NS(=O)(=O)c2cc(Br)ccc2O)c1O [Example J202, 3-((5-Bromo-2-hydroxyphenyl)sulfonamido)-5-(tert-butyl)-2-hydroxy-N-methylbenzamide] | 1.08 µM |
| CCc1cc(Br)cc(S(=O)(=O)Nc2cc(C3(C#N)CCC3)cc(C(=O)NC)c2O)c1O [Example J213, 3-((5-Bromo-3-ethyl-2-hydroxyphenyl)sulfonamido)-5-(1-cyanocyclobutyl)-2-hydroxy-N-methylbenzamide] | 12.2 µM |
| N#CC1(c2cc(NS(=O)(=O)c3cc(Br)ccc3O)c(O)c(C(N)=O)c2)CCC1 [Example J218, 3-((5-Bromo-2-hydroxyphenyl)sulfonamido)-5-(1-cyanocyclobutyl)-2-hydroxybenzamide] | 1.5 µM |
| N#CC1(c2cc(NS(=O)(=O)c3cc(Br)ccc3O)c(O)c(C(=O)NCC3CCCO3)c2)CCC1 (stereo not drawn) [Example J220, 3-((5-Bromo-2-hydroxyphenyl)sulfonamido)-5-(1-cyanocyclobutyl)-2-hydroxy-N-((tetrahydrofuran-2-yl)methyl)benzamide] | 1.03 µM |
| COC1CCN(C(=O)c2cc(C3(C#N)CCC3)cc(NS(=O)(=O)c3cc(Br)ccc3O)c2O)C1 (stereo not drawn) [Example J221, 5-Bromo-N-(5-(1-cyanocyclobutyl)-2-hydroxy-3-(3-methoxypyrrolidine-1-carbonyl)phenyl)-2-hydroxybenzenesulfonamide] | 27.8 µM |

Now those with a lower Ki, led by results:

| Ki | SMILES |
| --- | --- |
| 0.04 µM | N#CC1(c2cc(NS(=O)(=O)c3cc(Br)ccc3O)c(O)c(C(=O)O)c2)CCC1 [Example J203, 3-((5-Bromo-2-hydroxyphenyl)sulfonamido)-5-(1-cyanocyclobutyl)-2-hydroxybenzoic acid] |
| 0.05 µM | COc1ccc(Br)cc1S(=O)(=O)Nc1cc(C2(C#N)CCC2)cc(C(=O)O)c1O [Example J205, 3-((5-Bromo-2-methoxyphenyl)sulfonamido)-5-(1-cyanocyclobutyl)-2-hydroxybenzoic acid] |
| 0.02 µM | N#CC1(c2cc(NS(=O)(=O)c3cc(Br)cc(Cl)c3O)c(O)c(C(=O)O)c2)CCC1 [Example J206, 3-((S-Bromo-3-chloro-2-hydroxyphenyl)sulfonamido)-5-(1-cyanocyclobutyl)-2-hydroxybenzoic acid] |
| 0.22 µM | COc1cc(Cl)c(Br)cc1S(=O)(=O)Nc1cc(C2(C#N)CCC2)cc(C(=O)O)c1O [Example J207, 3-((5-Bromo-4-chloro-2-methoxyphenyl)sulfonamido)-5-(1-cyanocyclobutyl)-2-hydroxybenzoic acid] |
| 0.39 µM | CNC(=O)c1cc(C2(C#N)CCC2)cc(NS(=O)(=O)c2cc(Br)ccc2O)c1O [Example J208, 3-((5-Bromo-2-hydroxyphenyl)sulfonamido)-5-(1-cyanocyclobutyl)-2-hydroxy-N-methylbenzamide] |
| 0.39 µM | CNC(=O)c1cc(C2(C#N)CCC2)cc(NS(=O)(=O)c2cc(Br)ccc2OC)c1O [Example J210, 3-((5-Bromo-2-methoxyphenyl)sulfonamido)-5-(1-cyanocyclobutyl)-2-hydroxy-N-methylbenzamide] |
| 0.05 µM | CNC(=O)c1cc(C2(C#N)CCC2)cc(NS(=O)(=O)c2cc(Br)cc(Cl)c2O)c1O [Example J211, 3-((5-Bromo-3-chloro-2-hydroxyphenyl)sulfonamido)-5-(1-cyanocyclobutyl)-2-hydroxy-N-methylbenzamide] |
| 0.26 µM | CNC(=O)c1cc(C2(C#N)CCC2)cc(NS(=O)(=O)c2cc(Br)cc(C)c2O)c1O [Example J212, 3-((5-Bromo-2-hydroxy-3-methylphenyl)sulfonamido)-5-(1-cyanocyclobutyl)-2-hydroxy-N-methylbenzamide] |
| 0.39 µM | CNC(=O)c1cc(C2(C#N)CCC2)cc(NS(=O)(=O)c2cc(Br)cc(OC(F)(F)F)c2O)c1O [Example J214, 3-((5-Bromo-2-hydroxy-3-(trifluoromethoxy)phenyl)sulfonamido)-5-(1-cyanocyclobutyl)-2-hydroxy-N-methylbenzamide] |
| 0.17 µM | CNC(=O)c1cc(C2(C#N)CCC2)cc(NS(=O)(=O)c2cc(Cl)cc(Cl)c2O)c1O [Example J216, 5-(1-Cyanocyclobutyl)-3-((3,5-dichloro-2-hydroxyphenyl)sulfonamido)-2-hydroxy-N-methylbenzamide] |
| 0.42 µM | CNC(=O)c1cc(C2(C#N)CCC2)cc(NS(=O)(=O)c2cc(Br)cc3cccnc23)c1O [Example J217, 3-((6-Bromoquinoline)-8-sulfonamido)-5-(1-cyanocyclobutyl)-2-hydroxy-N-methylbenzamide] |
| 0.44 µM | COCCNC(=O)c1cc(C2(C#N)CCC2)cc(NS(=O)(=O)c2cc(Br)ccc2O)c1O [Example J219, 3-((5-Bromo-2-hydroxyphenyl)sulfonamido)-5-(1-cyanocyclobutyl)-2-hydroxy-N-(2-methoxyethyl)benzamide] |
| 0.41 µM | N#CC1(c2cc(NS(=O)(=O)c3cc(Br)ccc3O)c(O)c(C(=O)NCc3cc[nH]c(=O)c3)c2)CCC1 [Example J222, 3-((5-Bromo-2-hydroxyphenyl)sulfonamido)-5-(1-cyanocyclobutyl)-2-hydroxy-N-((2-oxo-1,2-dihydropyridin-4-yl)methyl)benzamide] |
